Results: patent US20150359798A1, “PIPERAZINYL DERIVATIVE REDUCES HIGH-FAT DIET-INDUCED ACCUMULATION OF FAT IN THE LIVERS, […]” (priority 2011, published 2015)

Tested on: IL-10
Test: IHC staining of IL-10 in epididymal fat pads
Format: in vivo, mice
Details: protection, 2.5 mg/kg/day
Protocol: For IHC of MMP-9/TNFα, HSL/p-HSL/ATGL and eNOS/IL-10, antigen retrieval of de-paraffinated sections was performed in Dako target retrieval solution, pH 9.0, in a vegetable steamer followed by the quenching of endogenous peroxidase activity with 3.0% H2O2 in methanol. Sections were then incubated with specific primary antibodies overnight at 4° C. in a humidified chamber. The antibodies used included rabbit polyclonal anti-eNOS (1:50 dilution) (Abcam, Cambridge, UK) or rabbit monoclonal anti-cleaved caspase-3 (1:50 dilution) (Cell Signaling, USA). The sections were then examined using a DAKO REAL EnVision™ Detection System kit (DAKO, Carpinteria, Calif.) and counterstained with hematoxylin. Images were obtained through a Nikon Eclipse TE200-S microscope.

SMILES: Cn1c(=O)c2c(ncn2CCN2CCN(c3ccccc3Cl)CC2)n(C)c1=O [KMUP-1, 7-[2-[4-(2-chlorophenyl)piperazinyl]ethyl]-1,3-dimethyl xanthine]
- IHC staining of IL-10 in epididymal fat pads: increased
